Assay results from the NIST ThermoML archive (doi:10.1016/j.jct.2019.01.028).

Key:
[1] = xn = mol fraction of the nth substance listed; details: transient hot wire, x1 = 0.5
[2] = transient hot wire

CC(F)(F)F [1,1,1-trifluoroethane] + C=C(F)C(F)(F)F
[1]
Details	thermal conductivity [W/m/K]
265.44 K, 1220 kPa, Liquid	0.0777
284.11 K, 2050 kPa, Liquid	0.0715
285.09 K, 1060 kPa, Liquid	0.0696
307.25 K, 2030 kPa, Liquid	0.0625
307.34 K, 3050 kPa, Liquid	0.0644
324.39 K, 3040 kPa, Liquid	0.0585
334.34 K, 1080 kPa, Gas	0.01836
354.13 K, 1170 kPa, Gas	0.02059
354.52 K, 1730 kPa, Gas	0.02034
373.86 K, 2750 kPa, Gas	0.02379
374.86 K, 1900 kPa, Gas	0.02277
393.8 K, 3090 kPa, Gas	0.02622

[Ar] [argon]
[2], Gas
Details	thermal conductivity [W/m/K]
311.92 K, 20370 kPa	0.02811
312.12 K, 24160 kPa	0.03024
312.12 K, 31080 kPa	0.0342
312.18 K, 27390 kPa	0.03235
312.2 K, 25850 kPa	0.03134
312.35 K, 27380 kPa	0.0324
312.59 K, 17170 kPa	0.02649
312.61 K, 13790 kPa	0.02465
312.73 K, 10320 kPa	0.02285

FC(F)C(F)(F)F [pentafluoroethane] + C=C(F)C(F)(F)F
[1]
Details	thermal conductivity [W/m/K]
259.84 K, 1110 kPa, Liquid	0.0717
284.9 K, 1150 kPa, Liquid	0.0674
285.15 K, 1880 kPa, Liquid	0.0686
304.07 K, 2060 kPa, Liquid	0.0644
305.21 K, 3030 kPa, Liquid	0.0595
324.75 K, 3030 kPa, Liquid	0.0529
334.55 K, 1340 kPa, Gas	0.01759
354.3 K, 1450 kPa, Gas	0.01925
354.63 K, 1840 kPa, Gas	0.02057
374.24 K, 2810 kPa, Gas	0.02329
374.46 K, 2040 kPa, Gas	0.02202
394.23 K, 3100 kPa, Gas	0.02512

FC(F)C(F)(F)F [pentafluoroethane] + CC(F)F
[1]
Details	thermal conductivity [W/m/K]
264.9 K, 1000 kPa, Liquid	0.0845
273.97 K, 2140 kPa, Liquid	0.0856
284.7 K, 1000 kPa, Liquid	0.0799
294.68 K, 3030 kPa, Liquid	0.0789
294.83 K, 2010 kPa, Liquid	0.0774
314.1 K, 3080 kPa, Liquid	0.0646
335.9 K, 1110 kPa, Gas	0.0178
353.81 K, 1710 kPa, Gas	0.01953
353.92 K, 1220 kPa, Gas	0.01934
374.25 K, 1920 kPa, Gas	0.0231
374.33 K, 2760 kPa, Gas	0.0237
393.94 K, 3110 kPa, Gas	0.02557

Cc1ccccc1 [toluene]
[2], 100 kPa, Liquid
Details	thermal conductivity [W/m/K]
272.64 K	0.1372
273.45 K	0.1366
295.01 K	0.1308
295.07 K	0.1307
316.82 K	0.1253
318.84 K	0.1243
321.21 K	0.1237
335.27 K	0.12
337.36 K	0.1192
347 K	0.1175
